Laboratory results published in PMC10247784, “Physiological activation of human and mouse bitter taste receptors by bile acids” (Communications Biology, 2023).
Where “and” joins values, the source holds several entries; their conditions need not be identical. Identical values can stand only once.

Molecular target: T1, human TAS2R4 (Homo sapiens, UniProt Q9NYW5)
T1 construct: expressed in transfected cells; host or cells: HEK293T-Gα16gust44
T1 sequence (Q9NYW5 1-299): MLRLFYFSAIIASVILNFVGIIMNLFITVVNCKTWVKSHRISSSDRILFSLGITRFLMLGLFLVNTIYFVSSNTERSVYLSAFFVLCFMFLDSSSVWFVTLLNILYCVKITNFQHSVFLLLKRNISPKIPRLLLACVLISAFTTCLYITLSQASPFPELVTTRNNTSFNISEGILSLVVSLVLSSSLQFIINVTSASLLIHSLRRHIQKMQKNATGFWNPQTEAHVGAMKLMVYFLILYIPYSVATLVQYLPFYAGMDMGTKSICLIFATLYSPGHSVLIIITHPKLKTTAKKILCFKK
Assay: Calcium imaging assay (FLIPR), HEK293T-Gα16gust44 cells transfected with human TAS2R4
Assay type: cell-based
Outline: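 Read-out is Fluo-4 fluorescence change (ΔF/F) after automated application of bile acids (DMSO stocks) to transiently transfected cells. Values are corrected for empty-vector cells and normalized to buffer. Dose-response from three independent experiments in duplicate; threshold concentration set at p < 0.01 versus mock.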

C[C@H](CCC(=O)NCC(=O)O)[C@H]1CC[C@H]2[C@@H]3[C@H](O)C[C@@H]4C[C@H](O)CC[C@]4(C)[C@H]3C[C@H](O)[C@]12C [Glycocholic Acid, glycocholic acid]
Efficacy = maximal amplitude (ΔF/F) (TAS2R4, bile acids, mean): 0.1626
Efficacy (maximal amplitude ΔF/F), individual data points (TAS2R4, bile acids, single replicates, listed as GCA): 0.1367 and 0.1786 and 0.1725
Δ F/F (TAS2R4, conc. 0,01 mM): 0.01565
Δ F/F (TAS2R4, conc. 0,1 mM): 0.106
Δ F/F (TAS2R4, conc. 0,03 mM): 0.03923
Δ F/F (TAS2R4, conc. 0,3 mM): 0.1626
Δ F/F (TAS2R4, conc. 0,001 mM): 0.006443
Δ F/F (TAS2R4, conc. 0,003 mM): 0.006613
RLU, fluorescence trace (Time (s) 0): 0 RLU
RLU, fluorescence trace (Time (s) 2): 4.14 RLU
RLU, fluorescence trace (Time (s) 4): -20.6032 RLU
RLU, fluorescence trace (Time (s) 6): -25.8877 RLU
RLU, fluorescence trace (Time (s) 8): -29.799 RLU
RLU, fluorescence trace (Time (s) 12): -12.9106 RLU
RLU, fluorescence trace (Time (s) 14): -6.673 RLU
RLU, fluorescence trace (Time (s) 16): -18.2287 RLU
RLU, fluorescence trace (Time (s) 18): -27.0676 RLU
RLU, fluorescence trace (Time (s) 18.766 (TCA, TLCA: 18.782)): -34.2066 RLU
RLU, fluorescence trace (Time (s) 20.781 (TCA, TLCA: 20.782)): -42.9373 RLU
RLU, fluorescence trace (Time (s) 22.781 (TCA, TLCA: 22.782)): 15.1075 RLU
RLU, fluorescence trace (Time (s) 24.781 (TCA, TLCA: 24.782)): 91.6518 RLU
RLU, fluorescence trace (Time (s) 26.781 (TCA, TLCA: 26.782)): 179.573 RLU
RLU, fluorescence trace (Time (s) 28.781 (TCA, TLCA: 28.782)): 304.257 RLU
RLU, fluorescence trace (Time (s) 30.781 (TCA, TLCA: 30.782)): 388.704 RLU
RLU, fluorescence trace (Time (s) 32.781 (TCA, TLCA: 32.782)): 524.444 RLU
RLU, fluorescence trace (Time (s) 34.781 (TCA, TLCA: 34.782)): 591.908 RLU
RLU, fluorescence trace (Time (s) 36.781 (TCA, TLCA: 36.782)): 664.761 RLU
RLU, fluorescence trace (Time (s) 38.781 (TCA, TLCA: 38.782)): 747.083 RLU
RLU, fluorescence trace (Time (s) 40.781 (TCA, TLCA: 40.782)): 780.753 RLU
RLU, fluorescence trace (Time (s) 42.781 (TCA, TLCA: 42.782)): 820.227 RLU
RLU, fluorescence trace (Time (s) 44.781 (TCA, TLCA: 44.782)): 854.725 RLU
RLU, fluorescence trace (Time (s) 46.781 (TCA, TLCA: 46.782)): 885.437 RLU
RLU, fluorescence trace (Time (s) 48.781 (TCA, TLCA: 48.782)): 869.015 RLU
RLU, fluorescence trace (Time (s) 50.781 (TCA, TLCA: 50.782)): 904.393 RLU
RLU, fluorescence trace (Time (s) 52.781 (TCA, TLCA: 52.782)): 904.624 RLU
RLU, fluorescence trace (Time (s) 54.781 (TCA, TLCA: 54.782)): 934.879 RLU
RLU, fluorescence trace (Time (s) 56.781 (TCA, TLCA: 56.782)): 910.42 RLU
RLU, fluorescence trace (Time (s) 58.781 (TCA, TLCA: 58.782)): 920.415 RLU
RLU, fluorescence trace (Time (s) 60.781 (TCA, TLCA: 60.782)): 939.945 RLU
RLU, fluorescence trace (Time (s) 62.781 (TCA, TLCA: 62.782)): 894.354 RLU
RLU, fluorescence trace (Time (s) 64.781 (TCA, TLCA: 64.782)): 892.209 RLU
RLU, fluorescence trace (Time (s) 66.781 (TCA, TLCA: 66.782)): 883.058 RLU
RLU, fluorescence trace (Time (s) 68.781 (TCA, TLCA: 68.782)): 897.442 RLU
RLU, fluorescence trace (Time (s) 70.781 (TCA, TLCA: 70.782)): 864.365 RLU
RLU, fluorescence trace (Time (s) 72.781 (TCA, TLCA: 72.782)): 888.719 RLU
RLU, fluorescence trace (Time (s) 74.781 (TCA, TLCA: 74.782)): 833.342 RLU
RLU, fluorescence trace (Time (s) 76.781 (TCA, TLCA: 76.782)): 856.102 RLU
RLU, fluorescence trace (Time (s) 78.781 (TCA, TLCA: 78.782)): 820.296 RLU
RLU, fluorescence trace (Time (s) 80.781 (TCA, TLCA: 80.782)): 794.483 RLU
RLU, fluorescence trace (Time (s) 82.781 (TCA, TLCA: 82.782)): 818.87 RLU
RLU, fluorescence trace (Time (s) 84.781 (TCA, TLCA: 84.782)): 756.604 RLU
RLU, fluorescence trace (Time (s) 86.781 (TCA, TLCA: 86.782)): 753.892 RLU
RLU, fluorescence trace (Time (s) 88.781 (TCA, TLCA: 88.782)): 732.115 RLU
RLU, fluorescence trace (Time (s) 90.781 (TCA, TLCA: 90.782)): 726.989 RLU
RLU, fluorescence trace (Time (s) 92.781 (TCA, TLCA: 92.782)): 713.242 RLU
RLU, fluorescence trace (Time (s) 94.781 (TCA, TLCA: 94.782)): 703.281 RLU
RLU, fluorescence trace (Time (s) 96.781 (TCA, TLCA: 96.782)): 696.734 RLU
RLU, fluorescence trace (Time (s) 98.781 (TCA, TLCA: 98.782)): 653.577 RLU
RLU, fluorescence trace (Time (s) 100.781 (TCA, TLCA: 100.782)): 678.663 RLU
RLU, fluorescence trace (Time (s) 102.781 (TCA, TLCA: 102.782)): 623.965 RLU
RLU, fluorescence trace (Time (s) 104.781 (TCA, TLCA: 104.782)): 624.137 RLU
RLU, fluorescence trace (Time (s) 106.781 (TCA, TLCA: 106.782)): 630.047 RLU
RLU, fluorescence trace (Time (s) 108.781 (TCA, TLCA: 108.782)): 571.666 RLU
RLU, fluorescence trace (Time (s) 110.781 (TCA, TLCA: 110.782)): 598.289 RLU
RLU, fluorescence trace (Time (s) 112.781 (TCA, TLCA: 112.782)): 583.918 RLU
RLU, fluorescence trace (Time (s) 114.781 (TCA, TLCA: 114.782)): 556.25 RLU
RLU, fluorescence trace (Time (s) 116.781 (TCA, TLCA: 116.782)): 588.773 RLU
RLU, fluorescence trace (Time (s) 118.781 (TCA, TLCA: 118.782)): 548.501 RLU
RLU, fluorescence trace (Time (s) 120.781 (TCA, TLCA: 120.782)): 507.386 RLU
RLU, fluorescence trace (Time (s) 122.781 (TCA, TLCA: 122.782)): 507.852 RLU
RLU, fluorescence trace (Time (s) 124.781 (TCA, TLCA: 124.782)): 509.201 RLU
RLU, fluorescence trace (Time (s) 126.781 (TCA, TLCA: 126.782)): 489.381 RLU
RLU, fluorescence trace (Time (s) 128.781 (TCA, TLCA: 128.782)): 446.993 RLU
RLU, fluorescence trace (Time (s) 130.781 (TCA, TLCA: 130.782)): 463.894 RLU
RLU, fluorescence trace (Time (s) 132.781 (TCA, TLCA: 132.782)): 448.798 RLU
RLU, fluorescence trace (Time (s) 134.781 (TCA, TLCA: 134.782)): 427.428 RLU
RLU, fluorescence trace (Time (s) 136.781 (TCA, TLCA: 136.782)): 402.196 RLU
RLU, fluorescence trace (Time (s) 137.547): 379.772 RLU
RLU, fluorescence trace (Time (s) 143.547): 379.834 RLU
RLU, fluorescence trace (Time (s) 149.547): 308.948 RLU
RLU, fluorescence trace (Time (s) 155.547): 318.726 RLU
RLU, fluorescence trace (Time (s) 161.547): 303.241 RLU
RLU, fluorescence trace (Time (s) 167.547): 312.32 RLU
RLU, fluorescence trace (Time (s) 173.547): 281.168 RLU
RLU, fluorescence trace (Time (s) 179.547): 242.535 RLU
RLU, fluorescence trace (Time (s) 185.547): 225.911 RLU
RLU, fluorescence trace (Time (s) 191.547): 214.607 RLU
RLU, fluorescence trace (Time (s) 197.547): 221.087 RLU
RLU, fluorescence trace (Time (s) 203.547): 189.795 RLU
RLU, fluorescence trace (Time (s) 209.547): 203.53 RLU
RLU, fluorescence trace (Time (s) 215.547): 197.074 RLU
RLU, fluorescence trace (Time (s) 221.547): 173.704 RLU
RLU, fluorescence trace (Time (s) 227.547): 160.915 RLU
RLU, fluorescence trace (Time (s) 233.547): 142.108 RLU
RLU, fluorescence trace (Time (s) 239.547): 141.876 RLU
RLU, fluorescence trace (Time (s) 245.547): 156.883 RLU
RLU, fluorescence trace (Time (s) 293.547): 127.131 RLU
RLU, fluorescence trace (Time (s) 299.547): 134.948 RLU
RLU, fluorescence trace (Time (s) 305.547): 119.109 RLU
RLU, fluorescence trace (Time (s) 311.547): 130.712 RLU
RLU, fluorescence trace (Time (s) 317.547): 94.0562 RLU
RLU, fluorescence trace (Time (s) 323.547): 123.872 RLU
RLU, fluorescence trace (Time (s) 329.547): 117.665 RLU
RLU, fluorescence trace (Time (s) 335.547): 137.018 RLU
RLU, fluorescence trace (Time (s) 341.547): 127.876 RLU
RLU, fluorescence trace (Time (s) 347.547): 133.973 RLU
RLU, fluorescence trace (Time (s) 353.547): 116.889 RLU
RLU, fluorescence trace (Time (s) 359.547): 102.962 RLU
Activation threshold concentration TAS2R4 (lowest concentration with significantly increased fluorescence vs empty vector (p < 0.01)): 30 µM
